The results in this text go back to patent publication US12577234B2, “Antagonists of the muscarinic acetylcholine receptor M4” (Vanderbilt University, priority 2017, dated 2026).

The assay concerns the target T1, human mAChR M4 (Homo sapiens, UniProt P08173).
T1 construct: expressed in transfected cells; host or cells: CHO-K1 (ATCC), stably co-expressing chimeric G protein Gqi5
T1 sequence (P08173 1-479): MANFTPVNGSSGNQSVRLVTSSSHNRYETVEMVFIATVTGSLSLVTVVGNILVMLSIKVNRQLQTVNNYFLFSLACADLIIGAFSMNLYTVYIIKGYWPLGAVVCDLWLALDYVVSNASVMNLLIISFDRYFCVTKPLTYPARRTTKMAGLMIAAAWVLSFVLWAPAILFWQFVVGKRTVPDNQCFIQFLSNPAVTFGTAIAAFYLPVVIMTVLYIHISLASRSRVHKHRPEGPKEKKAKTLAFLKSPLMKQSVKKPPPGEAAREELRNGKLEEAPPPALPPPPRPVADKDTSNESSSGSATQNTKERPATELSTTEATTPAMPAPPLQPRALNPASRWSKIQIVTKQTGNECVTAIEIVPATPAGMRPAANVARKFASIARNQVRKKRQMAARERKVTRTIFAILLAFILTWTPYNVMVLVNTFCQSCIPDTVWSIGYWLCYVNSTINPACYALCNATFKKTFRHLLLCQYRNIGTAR
Put plainly: mAChR M4 cell-based functional assay (calcium mobilization, EC80 acetylcholine), human M4. The note with it: for IC50: M4/Gqi5/CHO-K1 cells, decrease of EC80 acetylcholine response; for Emin: human M4, % ACh maximum at 30 μM. The essentials:
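CHO-K1 cells stably expressing human M4 with chimeric Gqi5; intracellular calcium rise read on FDSS as fluorescence static ratio at 1 Hz. Compounds in 10-point 1:3 dilution series; IC50 taken as concentration-dependent decrease of the EC80 acetylcholine response, four-parameter logistic fit.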
A general note: Calcium assays in cells follow changes in intracellular calcium, usually with a dye or a luminescent sensor.

Consider `Cc1nn(C)cc1-c1cnc(N[C@H]2C[C@@H]3CN(CCC(C)(C)C)C[C@@H]3C2)cn1` [Compound 153, (3aR,5s,6aS)-2-(3,3-dimethylbutyl)-N-[5-(1,3-dimethylpyrazol-4-yl)pyrazin-2-yl]-3,3a,4,5,6,6a-hexahydro-1H-cyclopenta[c]pyrrol-5-amine], for which, for the setting “Table 10”, the “Human M4 Emin” value is recorded as 5% and the IC50 turned out to be 124 nM.

As to `COc1ccccc1CN1C[C@H]2C[C@H](Nc3ccc(-c4cc(F)ccc4Cl)nn3)C[C@H]2C1` [Compound 174, (3aR,5s,6aS)-N-[6-(2-chloro-5-fluoro-phenyl)pyridazin-3-yl]-2-[(2-methoxyphenyl)methyl]-3,3a,4,5,6,6a-hexahydro-1H-cyclopenta[c]pyrrol-5-amine], for the setting “Table 10”, the “Human M4 Emin” value is given as 4% and the IC50 came out at 207 nM.

`CCC(C)CN1C[C@H]2C[C@H](Nc3ccc(-c4cn(C)nc4C)nn3)C[C@H]2C1` (stereo partly drawn) [compound 13]: for the setting “Table 9”, the IC50 came out at 0.7 nM.

Take `Cc1cccnc1CN1C[C@H]2C[C@H](Nc3ccc(-c4cn(C)nc4C)nn3)C[C@H]2C1` [compound 11]: under “Table 9”, the IC50 was 1.4 nM.

As to `Cc1ccc(-c2ccc(N[C@H]3C[C@@H]4CN(CC5CCOCC5)C[C@@H]4C3)nn2)cc1` [Compound 198, (3aR,5s,6aS)-N-[6-(p-tolyl)pyridazin-3-yl]-2-(tetrahydropyran-4-ylmethyl)-3,3a,4,5,6,6a-hexahydro-1H-cyclopenta[c]pyrrol-5-amine], where the note is “Table 10”, the “Human M4 Emin” value was determined as 6% and the IC50 worked out at 3.99 nM.

Regarding `Cc1nn(C)cc1-c1ccc(O[C@@H]2C[C@@H]3CN(CC4CCCCC4)C[C@@H]3C2)nn1` [Compound 49, (3aR,5r,6aS)-2-(cyclohexylmethyl)-5-[6-(1,3-dimethylpyrazol-4-yl)pyridazin-3-yl]oxy-3,3a,4,5,6,6a-hexahydro-1H-cyclopenta[c]pyrrole], where the note is “Table 9”, the IC50 came to 272 nM and the Emin turned out to be 3.17%.

With `Cc1nn(C)cc1-c1ccc(N[C@@H]2C[C@@H]3CN(CC4CCCCC4)C[C@@H]3C2)c(F)c1F` [Compound 43, (3aR,5r,6aS)-2-(cyclohexylmethyl)-N-[4-(1,3-dimethylpyrazol-4-yl)-2,3-difluoro-phenyl]-3,3a,4,5,6,6a-hexahydro-1H-cyclopenta[c]pyrrol-5-amine], under “Table 9”, the IC50 is 1210 nM and the Emin amounted to 5.25%.

On to `Cc1cnn(C)c1-c1ccc(NC(=O)C2C[C@@H]3CN(CCC(C)(C)C)C[C@@H]3C2)nn1` (stereo partly drawn) [Compound 74, (3aR,6aS)-2-(3,3-Dimethylbutyl)-N-[6-(2,4-dimethylpyrazol-3-yl)pyridazin-3-yl]-3,3a,4,5,6,6a-hexahydro-1H-cyclopenta[c]pyrrole-5-carboxamide], for which, where the note is “Table 9”, the IC50 was determined as 263 nM and the Emin was found to be 3.37%.

Turning to `Fc1ccc(Cl)c(-c2ccc(N[C@H]3C[C@@H]4CN(Cc5ccccc5F)C[C@@H]4C3)nn2)c1` [Compound 36, (3aR,5s,6aS)-N-[6-(2-chloro-5-fluoro-phenyl)pyridazin-3-yl]-2-[(2-fluorophenyl)methyl]-3,3a,4,5,6,6a-hexahydro-1H-cyclopenta[c]pyrrol-5-amine], where the note is “Table 9”, the IC50 was 14.6 nM and the Emin is given as 6.22%.

With `CC(CN1C[C@H]2C[C@@H](Oc3ccc(-c4cc(F)ccc4Cl)nn3)C[C@H]2C1)C(C)(C)C` (stereo partly drawn) [Compound 55, (3aR,5r,6aS)-5-[6-(2-chloro-5-fluoro-phenyl)pyridazin-3-yl]oxy-2-(2,3,3-trimethylbutyl)-3,3a,4,5,6,6a-hexahydro-1H-cyclopenta[c]pyrrole], for the setting “Table 9”, the IC50 stood at 430 nM and the Emin is 3.60%.

Regarding `Cc1cnn(C)c1-c1ccc(NCCC2C[C@@H]3CN(CC4CCCOC4)C[C@@H]3C2)nn1` (stereo partly drawn) [Compound 122, N-[2-[(3aR,6aS)-2-(tetrahydropyran-3-ylmethyl)-3,3a,4,5,6,6a-hexahydro-1H-cyclopenta[c]pyrrol-5-yl]ethyl]-6-(2,4-dimethylpyrazol-3-yl)pyridazin-3-amine], where the note is “Table 9”, the IC50 was 27.3 nM and the Emin came out at 4.29%.

With `Cc1cccnc1CN1C[C@H]2C[C@@H](Oc3ccc(-c4cc(F)ccc4Cl)nn3)C[C@H]2C1` [Compound 58, (3aR,5r,6aS)-5-[6-(2-chloro-5-fluoro-phenyl)pyridazin-3-yl]oxy-2-[(3-methyl-2-pyridyl)methyl]-3,3a,4,5,6,6a-hexahydro-1H-cyclopenta[c]pyrrole], under “Table 9”, the IC50 came to 1460 nM and the Emin came to 6.11%.

As to `Cc1nn(C)cc1-c1ccc(OCC2C[C@@H]3CN(Cc4ccc(F)cc4)C[C@@H]3C2)nn1` (stereo partly drawn) [Compound 102, (3aR,6aS)-5-[[6-(1,3-dimethylpyrazol-4-yl)pyridazin-3-yl]oxymethyl]-2-[(4-fluorophenyl)methyl]-3,3a,4,5,6,6a-hexahydro-1H-cyclopenta[c]pyrrole], where the note is “Table 9”, the IC50 came out at 2580 nM and the Emin is given as 6.62%.

Take `CCC(C)CN1C[C@H]2CC(COc3ccc(-c4c(C)cnn4C)nn3)C[C@H]2C1` (stereo partly drawn) [Compound 81, (3aR,6aS)-5-[[6-(2,4-dimethylpyrazol-3-yl)pyridazin-3-yl]oxymethyl]-2-(2-methylbutyl)-3,3a,4,5,6,6a-hexahydro-1H-cyclopenta[c]pyrrole]: for the setting “Table 9”, the IC50 came out at 904 nM and the Emin is recorded as 4.54%.

For the molecule `Fc1cccc(CN2C[C@H]3C[C@H](Nc4ccc(-c5cc(F)ccc5Cl)nn4)C[C@H]3C2)c1` [Compound 175, (3aR,5s,6aS)-N-[6-(2-chloro-5-fluoro-phenyl)pyridazin-3-yl]-2-[(3-fluorophenyl)methyl]-3,3a,4,5,6,6a-hexahydro-1H-cyclopenta[c]pyrrol-5-amine], where the note is “Table 10”, the “Human M4 Emin” value is reported as 3% and the IC50 came out at 29.7 nM.

Take `CC(C)(C)CCN1C[C@H]2C[C@H](CNc3ccc(-c4cc(F)ccc4Cl)nn3)C[C@H]2C1` [Compound 70, N-[[(3aR,5s,6aS)-2-(3,3-dimethylbutyl)-3,3a,4,5,6,6a-hexahydro-1H-cyclopenta[c]pyrrol-5-yl]methyl]-6-(2-chloro-5-fluoro-phenyl)pyridazin-3-amine]: where the note is “Table 9”, the IC50 turned out to be 19.2 nM and the Emin came out at 2.64%.

On to `Fc1ccc(Cl)c(-c2ccc(OCC3C[C@@H]4CN(Cc5ccccc5)C[C@@H]4C3)nn2)c1` (stereo partly drawn) [Compound 114, (3aR,6aS)-2-benzyl-5-[[6-(2-chloro-5-fluoro-phenyl)pyridazin-3-yl]oxymethyl]-3,3a,4,5,6,6a-hexahydro-1H-cyclopenta[c]pyrrole], for which, for the setting “Table 9”, the IC50 amounted to 2500 nM and the Emin is on record as 6.02%.

Consider `Fc1ccc(Cl)c(-c2ccc(N[C@H]3C[C@@H]4CN(Cc5ccccc5)C[C@@H]4C3)nn2)c1` [Compound 34, (3aR,5s,6aS)-2-benzyl-N-[6-(2-chloro-5-fluoro-phenyl)pyridazin-3-yl]-3,3a,4,5,6,6a-hexahydro-1H-cyclopenta[c]pyrrol-5-amine], for which, where the note is “Table 9”, the IC50 stood at 16.8 nM and the Emin came to 8.84%.

Regarding `Clc1ccccc1-c1ccc(N[C@H]2C[C@@H]3CN(CC4CCOCC4)C[C@@H]3C2)nn1` [Compound 205, (3aR,5s,6aS)-N-[6-(2-chlorophenyl)pyridazin-3-yl]-2-(tetrahydropyran-4-ylmethyl)-3,3a,4,5,6,6a-hexahydro-1H-cyclopenta[c]pyrrol-5-amine], under “Table 10”, the “Human M4 Emin” value is recorded as 4% and the IC50 stood at 0.365 nM.

By IC50 is commonly meant the concentration that inhibits the measured activity by half.
